Reference: ChEMBL document CHEMBL5543157, “Lead Optimization of Butyrolactone I as an Orally Bioavailable Antiallergic Agent Targeting FcγRIIB” (J Med Chem, 2024)
Values belong to the molecule of their own block, whether it stands above or below them. Calls of active or inactive are those of the source. The rule behind the calls is not given here.

Columns and labels:
RBL-2H3 [1] = assay: Antiallergic activity in rat RBL-2H3 cell model assessed as inhibition rate of IgE-mediated degranulation in by measuring […] at 50 uM relative to control; type: functional
RBL-2H3 [2] = assay: Antiallergic activity in rat RBL-2H3 cell model assessed as inhibition rate of IgE-mediated degranulation in by measuring […]; type: functional, cell-based
RBL-2H3 [3] = assay: Cytotoxicity against rat RBL-2H3 cells assessed as cell viability at 5 to 100 uM incubated for 24 hrs by CCK8- assay; type: toxicity, cell-based; conditions: rbl-2h3, 24 h, dose 5-100 µM
Mus musculus [4] = assay: Antiallergic activity against ovalbumin-sensitized food allergic Balb/c mouse model assessed as suppression of spleen enlargement at 10 mg/kg once a day during OVA challenge phase (days 28 to 40) administered by intragastric; type: functional, organism-based; conditions: route ig, time 13.0 day
Mus musculus [5] = assay: Antiallergic activity against ovalbumin-sensitized food allergic Balb/c mouse model assessed as suppression of intestinal edema by measuring reduced intestinal damage at 10 mg/kg once a day during OVA challenge phase (days 28 to 40) administered by intragastric; type: functional, organism-based; conditions: route ig, time 13.0 day
Mus musculus [6] = assay: Antiallergic activity against ovalbumin-sensitized food allergic Balb/c mouse model assessed as decrease in OVA-specific IgE level treated once a day during OVA challenge phase (days 28 to 40) administered by intragastric; type: functional, organism-based; conditions: dose 2.5-10 mg/kg, route ig, time 13.0 day
Mus musculus [7] = assay: Antiallergic activity against ovalbumin-sensitized food allergic Balb/c mouse model assessed as decrease in OVA-specific IgG1 level treated once a day during OVA challenge phase (days 28 to 40) administered by intragastric; type: functional, organism-based; conditions: dose 2.5-10 mg/kg, route ig, time 13.0 day
Mus musculus [8] = assay: Antiallergic activity against ovalbumin-sensitized food allergic Balb/c mouse model assessed as decrease in OVA-specific IgG2a level at 2.5 to 10 mg/kg treated once a day during OVA challenge phase (days 28 to 40) administered by intragastric; type: functional, organism-based; conditions: dose 2.5-10 mg/kg, route ig, time 13.0 day
Mus musculus [9] = assay: Antiallergic activity against ovalbumin-sensitized food allergic Balb/c mouse model assessed as decrease in histamine level at 2.5 to 10 mg/kg treated once a day during OVA challenge phase (days 28 to 40) administered by intragastric; type: functional, organism-based; conditions: dose 2.5-10 mg/kg, route ig, time 13.0 day
Mus musculus [10] = assay: Antiallergic activity against ovalbumin-sensitized food allergic Balb/c mouse model assessed as decrease in mMCP-1 level at 2.5 to 10 mg/kg treated once a day during OVA challenge phase (days 28 to 40) administered by intragastric; type: functional, organism-based; conditions: dose 2.5-10 mg/kg, route ig, time 13.0 day
Mus musculus [11] = assay: Antiallergic activity against ovalbumin-sensitized food allergic Balb/c mouse model assessed as decrease in IL-4 level at 10 mg/kg treated once a day during OVA challenge phase (days 28 to 40) administered by intragastric; type: functional, organism-based; conditions: route ig, time 13.0 day
Mus musculus [12] = assay: Antiallergic activity against ovalbumin-sensitized food allergic Balb/c mouse model assessed as decrease in IFN-gamma level at 10 mg/kg treated once a day during OVA challenge phase (days 28 to 40) administered by intragastric; type: functional, organism-based; conditions: route ig, time 13.0 day
Mus musculus [13] = assay: Antiallergic activity against passive cutaneous anaphylaxis (PCA) reaction BALB/c mouse model assessed as reduction in BSA/IgE-mediated allergic reaction in ear by measuring extravasation of Evans blue dye pretreated IG for 7 days followed administered with anti-DNP-IgE after 24 hrs treated with DNP-BSA by Evans blue dye based microscopic analysis; type: functional, organism-based; conditions: dose 2.5-10 mg/kg, time 8.0 day
[14] = Metabolic stability in human liver microsmes assessed as half life measured upto 60 mins by HPLC analysis; type: ADME; conditions: liver microsomes
[15] = Metabolic stability in human liver microsmes assessed as half life in presence of NADPH measured upto 60 mins by HPLC analysis; type: ADME; conditions: liver microsomes
[16] = Metabolic stability in human liver microsmes assessed as half life in presence of UDPGA measured upto 60 mins by HPLC analysis; type: ADME; conditions: liver microsomes
[17] = AUC (0 to 12 hrs) in Sprague-Dawley rat at 10 mg/kg, iv measured upto 12 hrs by mass spectrometry; type: ADME, organism-based; conditions: in vivo
[18] = AUC (0 to infinity) in Sprague-Dawley rat at 10 mg/kg, iv measured upto 12 hrs by mass spectrometry; type: ADME, organism-based; conditions: in vivo
[19] = Clearance in Sprague-Dawley rat at 10 mg/kg, iv measured upto 12 hrs by mass spectrometry; type: ADME, organism-based; conditions: in vivo
[20] = Half life in Sprague-Dawley rat at 10 mg/kg, iv measured upto 12 hrs by mass spectrometry; type: ADME, organism-based; conditions: in vivo
[21] = Tmax in Sprague-Dawley rat at 40 mg/kg, po measured upto 12 hrs by mass spectrometry; type: ADME, organism-based; conditions: in vivo
[22] = Cmax in Sprague-Dawley rat at 40 mg/kg, po measured upto 12 hrs by mass spectrometry; type: ADME, organism-based; conditions: in vivo
[23] = AUC (0 to 12 hrs) in Sprague-Dawley rat at 40 mg/kg, po measured upto 12 hrs by mass spectrometry; type: ADME, organism-based; conditions: in vivo
[24] = AUC (0 to infinity) in Sprague-Dawley rat at 40 mg/kg, po measured upto 12 hrs by mass spectrometry; type: ADME, organism-based; conditions: in vivo
[25] = Clearance in Sprague-Dawley rat at 40 mg/kg, po measured upto 12 hrs by mass spectrometry; type: ADME, organism-based; conditions: in vivo
[26] = Half life in Sprague-Dawley rat at 40 mg/kg, po measured upto 12 hrs by mass spectrometry; type: ADME, organism-based; conditions: in vivo
[27] = Oral bioavailability in Sprague-Dawley rat at 40 mg/kg measured upto 12 hrs by mass spectrometry; type: ADME, organism-based; conditions: in vivo

SMILES: COC(=O)[C@]1(Cc2ccc(O)c(CC=C(C)C)c2)OC(=O)C(OC(C)=O)=C1c1ccc(O)cc1
inhibition at 50 µM (RBL-2H3 [1]): 33.5%

SMILES: COC(=O)[C@]1(Cc2ccc(OC(C)=O)c(CC=C(C)C)c2)OC(=O)C(OC(C)=O)=C1c1ccc(O)cc1
inhibition at 50 µM (RBL-2H3 [1]): 27.8%

SMILES: COC(=O)[C@]1(Cc2ccc(OCC=C(C)C)c(CC=C(C)C)c2)OC(=O)C(OCC=C(C)C)=C1c1ccc(OCC=C(C)C)cc1
inhibition at 50 µM (RBL-2H3 [1]): 15.6%

IC50 (RBL-2H3 [2]): 6.7 µM
half-life [14]: 8.88 h
half-life [15]: 3.73 h
half-life [16]: 2.22 h
AUC(0-t) at 12 h [17]: 4090 ng·h/mL
AUC(0-inf) [18]: 4120 ng·h/mL
clearance ([19]; Sprague-Dawley): 45 mL/min/kg
half-life [20]: 2.2 h
Tmax [21]: 0.2 h
Cmax [22]: 6110 ng/mL
AUC(0-t) at 12 h [23]: 6540 ng·h/mL
AUC(0-inf) [24]: 7560 ng·h/mL
CL/F [25]: 90 mL/min/kg
half-life [26]: 4.1 h
bioavailability [27]: 45.9%
SMILES: CC(=O)[C@]1(Cc2ccc(O)c(CC=C(C)C)c2)OC(=O)C(O)=C1c1ccc(O)cc1
inhibition at 50 µM (RBL-2H3 [1]): > 90%
inhibition (RBL-2H3 [2]): Dose-Dependent Effect
Activity (RBL-2H3 [3]): Non-Toxic
Activity (Mus musculus [4]): Active
Activity (Mus musculus [5]): Active
Activity (Mus musculus [6]): Dose-Dependent Effect
Activity (Mus musculus [7]): Dose-Dependent Effect
Activity (Mus musculus [8]): inactive
Activity (Mus musculus [9]): Active
Activity (Mus musculus [10]): Active
Activity (Mus musculus [11]): Active
Activity (Mus musculus [12]): Active
Activity (Mus musculus [13]): Dose-Dependent Effect

SMILES: CC(C)=CCc1cc(C[C@@]2(CO)OC(=O)C(O)=C2c2ccc(O)cc2)ccc1O
inhibition (RBL-2H3 [1]): inactive
inhibition at 50 µM (RBL-2H3 [1]): 27.7%

IC50 (RBL-2H3 [2]): 27.9 µM
SMILES: CN1CCC(=C2c3ccccc3CC(=O)c3sccc32)CC1 [KETOTIFEN]

SMILES: CC(C)=CCc1cc(C[C@@]2(C=O)OC(=O)C(O)=C2c2ccc(O)cc2)ccc1O
inhibition (RBL-2H3 [1]): Active
inhibition at 50 µM (RBL-2H3 [1]): 63.9%

SMILES: COC(=O)[C@]1(Cc2ccc(O)c(CC=C(C)C)c2)OC(=O)C(OC(=O)C(C)C)=C1c1ccc(O)cc1
inhibition at 50 µM (RBL-2H3 [1]): 36.7%

SMILES: COC(=O)[C@]1(Cc2ccc(O)c(CC=C(C)C)c2)OC(=O)C(OC)=C1c1ccc(O)cc1
inhibition at 50 µM (RBL-2H3 [1]): 33.2%

SMILES: C=CCOC1=C(c2ccc(OCC=C)cc2)[C@](Cc2ccc(OCC=C)c(CC=C(C)C)c2)(C(=O)OC)OC1=O
inhibition at 50 µM (RBL-2H3 [1]): 18.4%

SMILES: COC(=O)[C@]1(Cc2ccc(O)c(CC=C(C)C)c2)OC(=O)C(OC(=O)C(C)C)=C1c1ccc(OC(=O)C(C)C)cc1
inhibition at 50 µM (RBL-2H3 [1]): 21.3%

SMILES: C=CCOC1=C(c2ccc(O)cc2)[C@](Cc2ccc(O)c(CC=C(C)C)c2)(C(=O)OC)OC1=O
inhibition at 50 µM (RBL-2H3 [1]): > 90%

SMILES: COC(=O)[C@]1(Cc2ccc(O)c(CCC(C)C)c2)OC(=O)C(O)=C1c1ccc(O)cc1
inhibition at 50 µM (RBL-2H3 [1]): 47.9%

SMILES: COC(=O)[C@]1(Cc2ccc(OC(C)=O)c(CC=C(C)C)c2)OC(=O)C(OC(C)=O)=C1c1ccc(OC(C)=O)cc1
inhibition at 50 µM (RBL-2H3 [1]): 11.7%

SMILES: COC(=O)[C@]1(Cc2ccc3c(c2)CCC(C)(C)O3)OC(=O)C(O)=C1c1ccc(O)cc1
inhibition at 50 µM (RBL-2H3 [1]): 10.1%

SMILES: COC(=O)[C@]1(Cc2ccc(OC)c(CC=C(C)C)c2)OC(=O)C(OC)=C1c1ccc(OC)cc1
inhibition at 50 µM (RBL-2H3 [1]): 38.7%

SMILES: COC(=O)[C@]1(Cc2ccc(O)c(CC=C(C)C)c2)OC(=O)C(OC)=C1c1ccc(OC)cc1
inhibition at 50 µM (RBL-2H3 [1]): 17.1%

SMILES: C=CCOC1=C(c2ccc(OCC=C)cc2)[C@](Cc2ccc(O)c(CC=C(C)C)c2)(C(=O)OC)OC1=O
inhibition at 50 µM (RBL-2H3 [1]): 8.95%

IC50 (RBL-2H3 [2]): 13.5 µM
half-life [14]: 0.283 h
half-life [15]: 0.326 h
half-life [16]: 0.292 h
AUC(0-t) at 12 h [17]: 21.7 ng·h/mL
AUC(0-inf) [18]: 27.8 ng·h/mL
CL ([19]; iv, 10 mg/kg, 12 h): 7202 mL/min/kg
half-life [20]: 4.1 h
Tmax [21]: 0.7 h
Cmax [22]: 10.8 ng/mL
AUC(0-t) at 12 h [23]: 28.9 ng·h/mL
AUC(0-inf) [24]: 36.9 ng·h/mL
half-life [26]: 4.7 h
bioavailability [27]: 33.2%
SMILES: COC(=O)[C@]1(Cc2ccc(O)c(CC=C(C)C)c2)OC(=O)C(O)=C1c1ccc(O)cc1
inhibition at 50 µM (RBL-2H3 [1]): > 90%

SMILES: COC(=O)[C@]1(Cc2ccc(OC(=O)C(C)C)c(CC=C(C)C)c2)OC(=O)C(OC(=O)C(C)C)=C1c1ccc(OC(=O)C(C)C)cc1
inhibition at 50 µM (RBL-2H3 [1]): 6.93%
